Results from the supplement of paper PMC11061612.

How the values were obtained:
[1] = system: CAL-27 (Oral Cavity Carcinoma); assay: Bliss excess, mean over the matrix (fraction); higher = more synergy
Procedure, shortened: (§1)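 Cell lines in DMEM/F12 or RPMI with 10% FBS were plated in 1536-well plates, held 24 hours at 37°C, 5% CO2, then given two-drug dose matrices for 72 hours (DMSO typically 0.2%). Viability was read by CellTiter-Glo 2.0 luminescence and scaled as inhibition from 0 (vehicle wells) to 1 (blank wells). Combination Emax is the second-highest inhibition in the matrix; Bliss excess is observed combination effect minus expected EA + EB − EA·EB, EA and EB being single-agent effects.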

[2] = system: Jurkat (T-Lymphoblastic Leukemia); assay: as above
Procedure, shortened: as §1

[3] = system: NCI-H2228 (Lung Adenocarcinoma); assay: as above
Procedure, shortened: as §1

[4] = system: OACp4C (Esophageal Adenocarcinoma); assay: as above
Procedure, shortened: as §1

[5] = system: CA46 (Burkitt's Lymphoma); assay: as above
Procedure, shortened: as §1

[6] = system: LS-411N (Colorectal Carcinoma); assay: as above
Procedure, shortened: as §1

EW-16 (Ewing's Sarcoma) = assay: as above
Procedure, shortened: as §1

[7] = system: NCI-H716 (Colorectal Carcinoma); assay: as above
Procedure, shortened: as §1

AU565 (Breast Carcinoma) = assay: as above
Procedure, shortened: as §1

[8] = system: JIMT-1 (Breast Carcinoma); assay: as above
Procedure, shortened: as §1

A204 (Rhabdomyosarcoma) = assay: as above
Procedure, shortened: as §1

[9] = system: A253 (Head and Neck Carcinoma); assay: as above
Procedure, shortened: as §1

IM-9 (Non-Cancerous) = assay: combination Emax (second highest fraction inhibited in the dose matrix, 72 h); higher = more inhibition; extreme values may be limits of the assay
Procedure, shortened: as §1

[10] = system: 22RV1 (Prostate Carcinoma); assay: as above
Procedure, shortened: as §1

[11] = system: JHH-2 (Hepatocellular Carcinoma); assay: as above
Procedure, shortened: as §1

[12] = system: NCI-H2087 (Lung Adenocarcinoma); assay: as above
Procedure, shortened: as §1

EB2 (Burkitt's Lymphoma) = assay: as above
Procedure, shortened: as §1

WM1552C (Melanoma) = assay: as above
Procedure, shortened: as §1

PEO1 (Ovarian Carcinoma) = assay: as above
Procedure, shortened: as §1

[13] = system: TE-10 (Esophageal Squamous Cell Carcinoma); assay: Bliss excess, mean over the matrix (fraction); higher = more synergy
Procedure, shortened: as §1
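Wherever Bliss excess, mean over the matrix is given: after 72 h of two-drug dosing.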

Compound | Bliss excess [1] | Bliss excess [2] | Bliss excess [3] | Bliss excess [4] | Bliss excess [5] | Bliss excess [6] | Bliss excess (EW-16 (Ewing's Sarcoma)) | Bliss excess [7] | Bliss excess (AU565 (Breast Carcinoma)) | Bliss excess [8] | Bliss excess (A204 (Rhabdomyosarcoma)) | Bliss excess [9] | combination Emax (IM-9 (Non-Cancerous)) | combination Emax [10] | combination Emax [11] | combination Emax [12] | combination Emax (EB2 (Burkitt's Lymphoma)) | combination Emax (WM1552C (Melanoma)) | combination Emax (PEO1 (Ovarian Carcinoma)) | Bliss excess [13]
C[C@@H](c1ccc2nccn2c1)n1nnc2ncc(-c3cnn(C)c3)nc21 [Savolitinib] + CC1(C)CCC(CN2CCN(c3ccc(C(=O)NS(=O)(=O)c4ccc(NCC5CCOCC5)c([N+](=O)[O-])c4)c(Oc4cnc5[nH]ccc5c4)c3)CC2)=C(c2ccc(Cl)cc2)C1 [Venetoclax] (first compound max 1 µM, 7x7, partner max 1 µM) | -0.0571 | -0.0723 | -0.0605 | -0.0367 | -0.0366 | -0.0349 | -0.0873 | -0.0423 | -0.0255 | -0.0354 | -0.0629 | -0.0524 | 0.385 | 0.214 | 0.0863 | 0.184 | 0.153 | 0.0794 | 0.219 | –
CN(CCO)CC[C@H](CSc1ccccc1)Nc1ccc(S(=O)(=O)NC(=O)c2ccc(N3CCC([C@@H](O)c4ccccc4-c4ccc(Cl)cc4)CC3)cc2)cc1S(=O)(=O)C(F)(F)F [AZD4320] + Nc1ccn([C@@H]2O[C@H](CO)[C@@H](O)C2(F)F)c(=O)n1 [Gemcitabine] (first compound max 1 µM, 7x7, partner max 0.3 µM) | – | – | – | – | – | – | – | – | – | – | – | – | 1 | 0.748 | 0.525 | 0.881 | 0.932 | 0.817 | 0.607 | –
CN(CCO)CC[C@H](CSc1ccccc1)Nc1ccc(S(=O)(=O)NC(=O)c2ccc(N3CCC([C@@H](O)c4ccccc4-c4ccc(Cl)cc4)CC3)cc2)cc1S(=O)(=O)C(F)(F)F [AZD4320] + C[C@@H](Nc1cc(F)cc(F)c1)c1cc(C(=O)N(C)C)cc2c(=O)cc(N3CCOCC3)oc12 [AZD8186] (first compound max 1 µM, 7x7, partner max 3 µM) | 0.0005 | 0.0576 | -0.0301 | – | 0.0317 | 0.031 | -0.0129 | 0.0234 | 0.035 | 0.0064 | 0.0119 | 0.0229 | 0.972 | 0.456 | 0.77 | 0.773 | 0.536 | 0.424 | 0.613 | 0.0157
N#Cc1cnc(Nc2cc(NC[C@H]3CNCCO3)c(C(F)(F)F)cn2)cn1 [SRA737] + Nc1ccn([C@@H]2O[C@H](CO)[C@@H](O)C2(F)F)c(=O)n1 [Gemcitabine] (first compound max 10 µM, 7x7, partner max 0.3 µM) | – | – | – | – | – | – | – | – | – | – | – | – | 1 | 0.734 | 0.708 | 0.585 | 0.945 | 0.796 | 0.728 | –
CN(CCO)CC[C@H](CSc1ccccc1)Nc1ccc(S(=O)(=O)NC(=O)c2ccc(N3CCC([C@@H](O)c4ccccc4-c4ccc(Cl)cc4)CC3)cc2)cc1S(=O)(=O)C(F)(F)F [AZD4320] + CC(=O)O[C@H]1C(=O)[C@@]2(C)[C@H]([C@H](OC(=O)c3ccccc3)[C@]3(O)C[C@H](OC(=O)[C@H](O)[C@@H](NC(=O)c4ccccc4)c4ccccc4)C(C)=C1C3(C)C)[C@]1(OC(C)=O)CO[C@@H]1C[C@@H]2O [Paclitaxel] (first compound max 1 µM, 7x7, partner max 3 µM) | – | – | – | – | – | – | – | – | – | – | – | – | 1 | 0.845 | 0.93 | 0.976 | 0.802 | 0.941 | 0.852 | –
C[C@@H](c1ccc2nccn2c1)n1nnc2ncc(-c3cnn(C)c3)nc21 [Savolitinib] + Cc1c2c(nn1C)CSCc1cc(n(C)n1)CSc1cc(c3ccccc3c1)OCCCc1c(C(=O)O)n(C)c3c-2c(Cl)ccc13 [AZD5991] (first compound max 1 µM, 7x7, partner max 1 µM) | -0.0839 | -0.103 | -0.0577 | -0.0328 | -0.03 | -0.0232 | -0.032 | -0.0572 | 0.0125 | -0.0551 | -0.0502 | -0.0738 | 0.573 | 0.34 | 0.142 | 0.204 | 0.208 | 0.554 | 0.218 | –
COc1cc2ncnc(Nc3ccc(F)c(Cl)c3)c2cc1OCCCN1CCOCC1 [Gefitinib] + CC(C)n1c(=O)n(C)c2cnc3cc(F)c(-c4ccc(OCCCN5CCCCC5)nc4)cc3c21 [AZD1390] (first compound max 10 µM, 7x7, partner max 0.3 µM) | -0.0668 | -0.0756 | -0.0704 | -0.067 | -0.0529 | -0.0463 | -0.0566 | -0.0353 | -0.0219 | -0.0248 | -0.0563 | -0.0551 | 0.424 | 0.148 | 0.304 | 0.131 | 0.38 | 0.12 | 0.175 | –
N#Cc1cnc(Nc2cc(NC[C@H]3CNCCO3)c(C(F)(F)F)cn2)cn1 [SRA737] + O=c1[nH]cc(F)c(=O)[nH]1 [5-Fluorouracil] (first compound max 10 µM, 7x7, partner max 20 µM) | – | – | – | – | – | – | – | – | – | – | – | – | 1 | 0.616 | 0.623 | 0.309 | 0.88 | 0.728 | 0.458 | –
Cc1nc(Nc2ncc(C(=O)Nc3c(C)cccc3Cl)s2)cc(N2CCN(CCO)CC2)n1 [Dasatinib] + CC(=O)Nc1cccc(-n2c(=O)n(C3CC3)c(=O)c3c(Nc4ccc(I)cc4F)n(C)c(=O)c(C)c32)c1 [Trametinib] (first compound max 2 µM, 7x7, partner max 1 µM) | -0.053 | -0.0746 | -0.049 | 0.01 | -0.0608 | 0.0509 | -0.0358 | -0.0355 | -0.0345 | 0.0276 | -0.0955 | -0.189 | 0.876 | 0.361 | 0.973 | 0.573 | 0.531 | 0.764 | 0.492 | –
Cc1cc2ncnn2cc1Nc1ncc2c(n1)n(C1CCOCC1)c(=O)n2C [AZD7648] + COc1cc([C@@H]2c3cc4c(cc3[C@@H](O[C@@H]3O[C@@H]5CO[C@@H](C)O[C@H]5[C@H](O)[C@H]3O)[C@H]3COC(=O)[C@H]23)OCO4)cc(OC)c1O [Etoposide] (first compound max 10 µM, 7x7, partner max 10 µM) | – | – | – | – | – | – | – | – | – | – | – | – | 1 | 0.666 | 0.605 | 0.633 | 0.953 | 0.507 | 0.613 | –
C[C@@H](c1ccc2nccn2c1)n1nnc2ncc(-c3cnn(C)c3)nc21 [Savolitinib] + CN(CC[C@H](CSC1=CC=CC=C1)NC2=C(C=C(C=C2)S(=O)(=O)NC(=O)C3=CC=C(C=C3)N4CCC(CC4)[C@H](C5=CC=CC=C5C6=CC=C(C=C6)Cl)O)S(=O)(=O)C(F)(F)F)CCO [AZD4320] (first compound max 1 µM, 7x7, partner max 1 µM) | -0.0514 | -0.0638 | -0.0527 | -0.0291 | -0.0488 | -0.0069 | -0.0994 | -0.0422 | 0.0022 | -0.0427 | -0.0484 | -0.0569 | – | – | – | – | – | – | – | –
CN(CCO)CC[C@H](CSc1ccccc1)Nc1ccc(S(=O)(=O)NC(=O)c2ccc(N3CCC([C@@H](O)c4ccccc4-c4ccc(Cl)cc4)CC3)cc2)cc1S(=O)(=O)C(F)(F)F [AZD4320] + Cn1cnc2c(F)c(Nc3ccc(Br)cc3Cl)c(C(=O)NOCCO)cc21 [Selumetinib] (first compound max 1 µM, 7x7, partner max 3 µM) | 0.0321 | 0.0229 | 0.0075 | 0.0737 | -0.0435 | 0.0165 | 0.076 | – | 0.0474 | 0.0367 | -0.0054 | 0.0339 | 1 | 0.453 | 0.452 | 0.908 | 0.377 | 0.558 | 0.582 | -0.0187
N#Cc1cnc(Nc2cc(NC[C@H]3CNCCO3)c(C(F)(F)F)cn2)cn1 [SRA737] + CCc1c2c(nc3ccc(O)cc13)-c1cc3c(c(=O)n1C2)COC(=O)[C@]3(O)CC [SN-38] (first compound max 10 µM, 7x7, partner max 0.3 µM) | – | – | – | – | – | – | – | – | – | – | – | – | 1 | 0.685 | 0.724 | 0.918 | 0.929 | 0.638 | 0.746 | –
CC(=O)c1c(C)c2cnc(Nc3ccc(N4CCNCC4)cn3)nc2n(C2CCCC2)c1=O [Palbociclib] + CN(CC[C@H](CSC1=CC=CC=C1)NC2=C(C=C(C=C2)S(=O)(=O)NC(=O)C3=CC=C(C=C3)N4CCC(CC4)[C@H](C5=CC=CC=C5C6=CC=C(C=C6)Cl)O)S(=O)(=O)C(F)(F)F)CCO [AZD4320] (first compound max 10 µM, 7x7, partner max 1 µM) | -0.0667 | -0.0316 | -0.0627 | -0.144 | -0.0474 | -0.0089 | -0.127 | -0.0417 | -0.0375 | -0.0507 | -0.0397 | -0.101 | – | – | – | – | – | – | – | –
N#Cc1cnc(Nc2cc(NC[C@H]3CNCCO3)c(C(F)(F)F)cn2)cn1 [SRA737] + C=CCn1c(=O)c2cnc(Nc3ccc(N4CCN(C)CC4)cc3)nc2n1-c1cccc(C(C)(C)O)n1 [AZD1775] (first compound max 10 µM, partner max 1 µM) | – | – | – | – | – | – | – | – | – | – | – | – | 1 | 0.516 | 0.652 | 0.645 | 0.911 | 0.751 | 0.48 | –
COc1nnc2ccc(N3CCC(c4ccc(OCCN5CCN(C)C(=O)[C@H]5C)cc4)CC3)nn12 [AZD5153] + CN(CC[C@H](CSC1=CC=CC=C1)NC2=C(C=C(C=C2)S(=O)(=O)NC(=O)C3=CC=C(C=C3)N4CCC(CC4)[C@H](C5=CC=CC=C5C6=CC=C(C=C6)Cl)O)S(=O)(=O)C(F)(F)F)CCO [AZD4320] (first compound max 1 µM, 7x7, partner max 1 µM) | 0.0151 | 0.041 | 0.0351 | -0.0404 | -0.0053 | 0.0969 | 0.0851 | -0.0394 | 0.0811 | 0.0486 | 0.0084 | 0.0043 | – | – | – | – | – | – | – | –
